# Results from PMC12271471, “Direct synthesis of mycophenolic acid aryl esters with antioxidant and antiproliferative properties” (Scientific Reports, 2025).
# Key:
# T-Jurkat cells = assay: XTT cytotoxicity test on T-Jurkat cell line; type: cell-based, human; details: for IC50: Homo sapiens, T-Jurkat, 48 h, viability, mean ± SD, read-out: Relative IC50 T-Jurkat (XTT); for IS internal selectivity (IC50 PBMCs / IC50 T-Jurkat): ratio between XTT IC50 values for PBMCs and T-Jurkat cell line
# Experimental: (§1) Table 3 presents the IC50 values obtained from the XTT test on PBMCs and the T-Jurkat cell line, using MPA and MMF as standards. These values indicate the concentration of each compound required to reduce the viability of PBMCs (healthy cells) and T-Jurkat cells (T-cell leukemia) by 50% compared to the control. Cells were treated with compounds for 72 h (PBMCs) or 48 h (T-Jurkat), followed by a colorimetric XTT test. The results are illustrated in ESI Fig. S2 as a viability curve in relation to concentration.
# Biological evaluation — PBMC and T-Jurkat cells
# The T-Jurkat cell line (Clone E6-1, ATCC TIB-152), derived from a human acute T-cell leukemia, was obtained from the cell bank of the Department of Medical Immunology at the Medical University of Gdańsk. Before experimentation, the cells were thawed and cultured for about 7 days to reach the logarithmic phase of growth. The T-Jurkat cell line was suspended in a complete RPMI medium, which included RPMI-1640, 10% FBS, penicillin (100 U/ml), and streptomycin ([…]).
# (§2) Human peripheral blood mononuclear cells (PBMCs) were isolated from buffy coats provided by anonymous, healthy volunteers with an average age of 35±4 years during routine transfusion procedure. These samples were received by the Authors from the Regional Centre for Blood Donation and Treatment in Gdańsk (Poland). […]
# (§3) solely for PBMCs isolation. PBMCs were suspended in a complete X-VIVO medium, consisting of X-VIVO20, 10% heat-inactivated human AB serum, penicillin (100 U/ml), and streptomycin ([…]).
# (§4) MPA derivatives preparation
# (§5) To achieve the desired concentrations of the tested compounds, the substances were first dissolved in DMSO to reach a final concentration of 0.01 M. The solutions were then diluted in the appropriate additive-free medium (RPMI-1640 for T-Jurkat cells and X-VIVO20 for PBMCs) to obtain […]
# (§6) Peripheral blood mononuclear cells were isolated by gradient centrifugation, as described previously. Buffy coats were diluted with phosphate-buffered saline (PBS, pH = 7.4, ThermoFisher Scientific) in a 1:1 ratio, layered at Ficoll-Paque™ PLUS (VWR International), and centrifuged at 800 × g for 20 minutes. The PBMC layer was collected and washed twice with PBS (1st wash: 600 × g for 10 minutes; 2nd wash: 600 × g for 5 minutes). Cell amount and viability were assessed using the Bio-Rad TC20™ automated cell counter combined with trypan blue staining.
# (§7) XTT dye-based in vitro cytotoxicity test
# (§8) The cytotoxic effects of mycophenolic acid (MPA) derivatives were assessed using an in vitro XTT-based assay (Roche). PBMCs in complete X-VIVO20 medium and T-Jurkat cells in complete RPMI-1640 medium were seeded into 96-well plates at a concentration of 5∙10^5 cells/50 µl per well. 50 µl of tested compounds were added to the experimental wells to achieve final concentrations of 50, 25, 10, 5, 1, 0.1, and 0.01 µM. The background control consisted of the medium without cells, while untreated cells served as the positive control. After incubating for 48 hours for T-Jurkat cells and 96 hours for PBMCs in a humidified atmosphere with 5% CO2 at 37°C, 50 µl of freshly prepared XTT reagent was added to all wells according to the manufacturer's instructions. The plates were then incubated for an additional 24 hours under the same conditions. The conversion of the water-soluble yellow XTT tetrazolium salt to orange formazan was quantified by measuring the optical density (OD) at 450 nm using an Agilent BioTek Epoch Microplate Spectrophotometer (Agilent Technologies), with a reference wavelength of 690 nm. The results were expressed as IC50 values for compounds that […]
# (§9) inhibited cell viability by more than 50%. […]
# PBMCs were suspended in a 15 mL centrifuge tube at a concentration of 10-30 × 10⁶ cells in 1 mL of PBS, then, 2 μL of 1 mM VPD 450 dye solution was added, incubated for 15 min at 37°C, washed with a 9-fold volume of warm PBS and centrifuged at 400 x g for 5 min. Then, the cells were suspended […]
# PBMCs = assay: XTT cytotoxicity test on PBMCs; type: cell-based; details: Homo sapiens, PBMC, 72 h (ESI: 96 h), viability, mean ± SD, read-out: Relative IC50 PBMCs (XTT)
# Experimental: as §1
# Biological evaluation — PBMC and T-Jurkat cells […]
# as §2, §3, §4, §5, §6, §7, §8, §9
# PBMCs were suspended in a 15 mL centrifuge tube at a concentration of 10-30 × 10⁶ cells in 1 mL of PBS, then, 2 μL of 1 mM VPD 450 dye solution was added, incubated for 15 min at 37°C, washed with a 9-fold volume of warm PBS and centrifuged at 400 x g for 5 min. Then, the cells were suspended in 10 mL of X-VIVO medium with 10% FBS and centrifuged again at 400 x g for 5 min. After suspending the cells in the complete medium, the staining level was checked using flow cytometry. The cells thus obtained were stimulated with anti-CD3/anti-CD28 antibodies as described previously (see VPD450 dye-based in vitro cell proliferation test). To perform the GMP test, a proper amount of GMP was added to each well to reach its final concentration of 50 μM, and then incubated for 72 hours. Proliferative […]
SMILES,IC50 (T-Jurkat cells) [µM],IS internal selectivity (IC50 PBMCs / IC50 T-Jurkat) (T-Jurkat cells),IC50 (PBMCs) [µM]
COc1cc(C=O)cc(OC)c1OC(=O)CC/C(C)=C/Cc1c(O)c2c(c(C)c1OC)COC2=O [MP3],4.443 ± 0.007,2.383,10.59 ± 0.04
COc1c(C)c2c(c(O)c1C/C=C(\C)CCC(=O)Oc1ccc(C=O)cc1)C(=O)OC2 [P5],1.582 ± 0.003,6.288,9.948 ± 0.046
COc1ccccc1OC(=O)CC/C(C)=C/Cc1c(O)c2c(c(C)c1OC)COC2=O [MP1],0.982 ± 0.005,15.051,14.78 ± 0.016
"COc1c(C)c2c(c(O)c1C/C=C(\C)CCC(=O)O)C(=O)OC2 [MPA, Mycophenolic acid]",0.527 ± 0.04,35.558,18.73 ± 0.03
"COc1c(C)c2c(c(O)c1C/C=C(\C)CCC(=O)OCCN1CCOCC1)C(=O)OC2 [MMF, mycophenolate mofetil, reference compound]",0.74 ± 0.034,22.456,16.61 ± 0.041
COc1cccc(OC)c1OC(=O)CC/C(C)=C/Cc1c(O)c2c(c(C)c1OC)COC2=O [MP2],1.748 ± 0.006,12.883,22.52 ± 0.039
COC(=O)/C=C/c1ccc(OC(=O)CC/C(C)=C/Cc2c(O)c3c(c(C)c2OC)COC3=O)c(OC)c1 [MP7],1.406 ± 0.004,21.645,30.43 ± 0.044
COc1c(C)c2c(c(O)c1C/C=C(\C)CCC(=O)Oc1ccc3c(c1)OCO3)C(=O)OC2 [P1],1.073 ± 0.002,116.938,125.48 ± 0.025
C/C=C/c1ccc(OC(=O)CC/C(C)=C/Cc2c(O)c3c(c(C)c2OC)COC3=O)c(OC)c1 [MP9],1.964 ± 0.002,10.770,21.153 ± 0.015
COc1c(C)c2c(c(O)c1C/C=C(\C)CCC(=O)Oc1cc(C)ccc1C(C)C)C(=O)OC2 [P2],2.473 ± 0.004,6.611,16.349 ± 0.01
C=CCc1ccc(OC(=O)CC/C(C)=C/Cc2c(O)c3c(c(C)c2OC)COC3=O)c(OC)c1 [MP8],1.705 ± 0.002,10.429,17.782 ± 0.011
COC(=O)/C=C/c1ccccc1OC(=O)CC/C(C)=C/Cc1c(O)c2c(c(C)c1OC)COC2=O [P4],1.658 ± 0.003,15.613,25.887 ± 0.017
COc1cc(C=O)ccc1OC(=O)CC/C(C)=C/Cc1c(O)c2c(c(C)c1OC)COC2=O [MP4],5.33 ± 0.005,4.406,23.484 ± 0.015
COc1c(C)c2c(c(O)c1C/C=C(\C)CCC(=O)Oc1ccc(CCC(C)=O)cc1)C(=O)OC2 [P7],2.41 ± 0.002,20.869,50.294 ± 0.019
